Values joined by “and” are separate entries in the source; they are usually repeats but may differ in a detail not shown here. Identical values can stand only once. Like-named read-outs stand apart in the source and are kept apart here. One block for each compound: values may come before it.
Tests used:
[1] = Particle size by laser particle size analyzer; conditions: water as a dispersant
[2] = Influencing factors test (physical and chemical stability) of dapagliflozin crystal forms, Test Example 1
Protocol: The materials of the two crystal forms were directly exposed for 10 days to conditions of high temperature of 60° C.±2° C., light irradiation of 4500LX±500LX, and high humidity RH75%±5%, to investigate the physical stability and chemical stability of the two crystal forms.

[3] = Comparison of sieving performance; conditions: 30 g, 80 mesh sieve, 1400 rpm, 20 minutes
[4] = physchem; conditions: thermodynamic from solid
[5] = RH80%/25° C. 24 h
[6] = Fluidity (angle of repose, bulk density, tap density); conditions: BT-1000 powder comprehensive property tester
[7] = Influencing factors test (physical and chemical stability) of canagliflozin crystal forms, Test Example 2; type: physicochemical; design: Impurity RRT0.73 content / Impurity RRT0.93 content / Impurity RRT1.12 content / Impurity RRT1.17 content / Impurity RRT2.25 content / Impurity RRT2.28 content / Impurity RRT0.57 content / Impurity RRT0.67 content: unit not given here
Protocol: The canagliflozin-sarcosine cocrystal and canagliflozin hemihydrate (original crystal form) were tested for influencing factors.

[8] = 60° C., directly exposed 10 days
[9] = Light irradiation of 5000 Lx, 10 days
[10] = artificial gastric juice, 25 °C, simulated gastric fluid
[11] = artificial intestinal juice, 25 °C, fassgf or other biorelevant
[12] = citrate buffer of pH 3.0, 25 °C, pH 3, aqueous buffer
[13] = hydrochloric acid of pH 1.0, 25 °C, pH 1, simulated gastric fluid
[14] = phosphate buffer, 25 °C, pH 6.8, aqueous buffer
[15] = Directly exposed at 60° C. for 10 days
[16] = Directly exposed at 5000 LX for 10 days
[17] = Directly exposed at RH75% for 10 days
[18] = light irradiation of 5000LX for 10 days

- D10 (μm) [1]: 5.151 μm
- D50 (μm) [1]: 24.83 μm
- D90 (μm) [1]: 89.93 μm
- Impurity 10 (RT 33.01 min, RRT 1.61) content ([2]; 0 day): 0.03
- Impurity 11 (RT 33.72 min, RRT 1.65) content ([2]; 0 day): 0.01
- Impurity 12 (RT 34.69 min, RRT 1.69) content ([2]; 0 day): 0.03
- Impurity 13 (RT 39.10 min, RRT 1.91) content ([2]; 0 day): 0.01
- Number of impurities ([2]; 0 day): 4
- Property (appearance) ([2]; 0 day): White
- Total content of impurities (%) ([2]; 0 day): 0.07%
- Impurity 10 (RT 33.01 min, RRT 1.61) content [2, 8]: 0.02
- Impurity 11 (RT 33.72 min, RRT 1.65) content [2, 8]: 0.01
- Impurity 12 (RT 34.69 min, RRT 1.69) content [2, 8]: 0.02
- Impurity 13 (RT 39.10 min, RRT 1.91) content [2, 8]: 0.01
- Number of impurities [2, 8]: 4
- Property (appearance) [2, 8]: White
- Total content of impurities (%) [2, 8]: 0.06%
- Impurity 10 (RT 33.01 min, RRT 1.61) content [2, 9]: 0.02
- Impurity 11 (RT 33.72 min, RRT 1.65) content [2, 9]: 0.01
- Impurity 12 (RT 34.69 min, RRT 1.69) content [2, 9]: 0.02
- Impurity 13 (RT 39.10 min, RRT 1.91) content [2, 9]: 0.01
- Number of impurities [2, 9]: 4
- Property (appearance) [2, 9]: White
- Total content of impurities (%) [2, 9]: 0.05%
- Impurity 10 (RT 33.01 min, RRT 1.61) content ([2]; RH75%, 10 days): 0.02
- Impurity 11 (RT 33.72 min, RRT 1.65) content ([2]; RH75%, 10 days): 0.01
- Impurity 12 (RT 34.69 min, RRT 1.69) content ([2]; RH75%, 10 days): 0.02
- Impurity 13 (RT 39.10 min, RRT 1.91) content ([2]; RH75%, 10 days): 0.01
- Number of impurities ([2]; RH75%, 10 days): 4
- Property (appearance) ([2]; RH75%, 10 days): White
- Total content of impurities (%) ([2]; RH75%, 10 days): 0.06%
- Number of impurities detected and total content of impurities detected, change ([2]; all the test conditions, 10 days vs 0 day): did not increase
- Crystal form stability (XRPD) ([2]; each influencing factor (60° C., 5000LX, RH75%) for 10 days vs 0 day): did not change
- Average yield (%) after sieving [3]: 91.8%
- Situations after sieving [3]: Almost no large particles on the
- Yield after sieving (%, n = 3), single runs [3]: 93.6, % and 90.5, % and 91.3%
- solubility at 12 h ([4]; acetate buffer of pH 4.0, 25 °C, pH 4, aqueous buffer): 1640 µg/mL
- solubility at 24 h ([4]; acetate buffer, 25 °C, pH 4, aqueous buffer): 1620 µg/mL
- Solubility ([4]; aqueous media of different pH, 25 °C, aqueous buffer): 1400 to 1600 µg/mL
- solubility at 12 h [4, 10]: 1560 µg/mL
- solubility at 24 h [4, 10]: 1550 µg/mL
- solubility at 12 h [4, 11]: 1400 µg/mL
- solubility at 24 h [4, 11]: 1430 µg/mL
- solubility at 12 h [4, 12]: 1620 µg/mL
- solubility at 24 h [4, 12]: 1610 µg/mL
- solubility at 12 h [4, 13]: 1600 µg/mL
- solubility at 24 h [4, 13]: 1560 µg/mL
- solubility at 12 h [4, 14]: 1580 µg/mL
- solubility at 24 h [4, 14]: 1580 µg/mL
- Hygroscopicity [5]: does not have hygroscopicity
- Percentage of weight gain (%) [5]: 0.00%
- Angle of repose (°) [6]: 40 °
- Bulk density [6]: 0.40 g/mL
- Tap density [6]: 0.58 g/mL
- Solubility (Water, 25° C., 24 h): 1590 µg/mL
Structure (SMILES): CCOc1ccc(Cc2cc([C@@H]3O[C@H](CO)[C@@H](O)[C@H](O)[C@H]3O)ccc2Cl)cc1 [dapagliflozin-sarcosine cocrystal]

- Solubility (Acetate buffer of pH 4.0, 25° C., 12 h): 32650 µg/mL
- Solubility (Acetate buffer of pH 4.0, 25° C., 24 h): 32660 µg/mL
- Solubility (Artificial gastric juice, 25° C., 12 h): 31160 µg/mL
- Solubility (Artificial gastric juice, 25° C., 24 h): 32080 µg/mL
- Solubility (Artificial intestinal juice, 25° C., 12 h): 30350 µg/mL
- Solubility (Artificial intestinal juice, 25° C., 24 h): 30890 µg/mL
- Solubility (Citrate buffer of pH 3.0, 25° C., 12 h): 33870 µg/mL
- Solubility (Citrate buffer of pH 3.0, 25° C., 24 h): 34230 µg/mL
- Solubility (Hydrochloric acid of pH 1.0, 25° C., 12 h): 34920 µg/mL
- Solubility (Hydrochloric acid of pH 1.0, 25° C., 24 h): 35120 µg/mL
- Solubility (Phosphate buffer of pH 6.8, 25° C., 12 h): 31280 µg/mL
- Solubility (Phosphate buffer of pH 6.8, 25° C., 24 h): 33340 µg/mL
- Solubility (Water, 25° C., 12 h): 35120 µg/mL
- Solubility (Water, 25° C., 24 h): 34560 µg/mL
- Solubility in different pH media (summary over media, 25° C.): about 30 μg/ml
- Solubility in different pH media (words) (summary over media, 25° C.): almost insoluble
- Impurity RRT0.57 content ([7]; 0 day): 0.01
- Impurity RRT0.93 content ([7]; 0 day): 0.01
- Impurity RRT2.25 content ([7]; 0 day): 0.01
- Number of impurities ([7]; 0 day): 3
- Property (appearance) ([7]; 0 day): White
- Total content of impurities ([7]; 0 day): 0.03%
- Impurity RRT0.57 content [7, 15]: 0.01
- Impurity RRT0.93 content [7, 15]: 0.01
- Impurity RRT2.25 content [7, 15]: 0.01
- Number of impurities [7, 15]: 3
- Property (appearance) [7, 15]: White
- Total content of impurities [7, 15]: 0.03%
- Impurity RRT0.57 content [7, 16]: 0.05
- Impurity RRT0.73 content [7, 16]: 0.01
- Impurity RRT0.93 content [7, 16]: 0.01
- Impurity RRT1.12 content [7, 16]: 0.01
- Impurity RRT2.25 content [7, 16]: 0.01
- Number of impurities [7, 16]: 5
- Property (appearance) [7, 16]: White
- Total content of impurities [7, 16]: 0.09%
- Impurity RRT0.57 content [7, 17]: 0.01
- Impurity RRT0.93 content [7, 17]: 0.01
- Impurity RRT2.25 content [7, 17]: 0.01
- Number of impurities [7, 17]: 3
- Property (appearance) [7, 17]: White
- Total content of impurities [7, 17]: 0.03%
- Crystal form stability (XRPD) ([7]; each influencing factor for 10 days vs 0 day): did not change
- Number of impurities detected and total content of impurities detected, change ([7]; high temperature 60° C. and high humidity of RH75% for 10 days vs 0 day): did not show an increasing trend
- Weight change ([7]; high temperature of 60° C. and high humidity of RH75%): basically remained unchanged
- Maximum detected amount of new impurities [7, 18]: about 0.05%
- New impurities detected (number) [7, 18]: 2
Structure (SMILES): CNCC(=O)O.Cc1ccc([C@@H]2O[C@H](CO)[C@@H](O)[C@H](O)[C@H]2O)cc1Cc1ccc(-c2ccc(F)cc2)s1 [canagliflozin-sarcosine cocrystal]

- D10 (μm) [1]: 2.492 μm
- D50 (μm) [1]: 61.55 μm
- D90 (μm) [1]: 256.2 μm
- Impurity 6 (RT 21.65 min, RRT 1.06) content ([2]; 0 day): 0.01
- Impurity 7 (RT 22.01 min, RRT 1.07) content ([2]; 0 day): 0.01
- Impurity 10 (RT 33.01 min, RRT 1.61) content ([2]; 0 day): 0.02
- Impurity 11 (RT 33.72 min, RRT 1.65) content ([2]; 0 day): 0.01
- Impurity 12 (RT 34.69 min, RRT 1.69) content ([2]; 0 day): 0.01
- Impurity 13 (RT 39.10 min, RRT 1.91) content ([2]; 0 day): 0.02
- Number of impurities ([2]; 0 day): 6
- Property (appearance) ([2]; 0 day): White
- Total content of impurities (%) ([2]; 0 day): 0.07%
- Impurity 1 (RT 7.45 min, RRT 0.36) content [2, 8]: 0.02
- Impurity 2 (RT 10.46 min, RRT 0.51) content [2, 8]: 0.14
- Impurity 3 (RT 14.06 min, RRT 0.69) content [2, 8]: 0.01
- Impurity 4 (RT 14.62 min, RRT 0.71) content [2, 8]: 0.21
- Impurity 5 (RT 16.02 min, RRT 0.78) content [2, 8]: 0.01
- Impurity 6 (RT 21.65 min, RRT 1.06) content [2, 8]: 0.01
- Impurity 7 (RT 22.01 min, RRT 1.07) content [2, 8]: 0.01
- Impurity 8 (RT 27.17 min, RRT 1.33) content [2, 8]: 0.02
- Impurity 9 (RT 30.53 min, RRT 1.49) content [2, 8]: 0.02
- Impurity 10 (RT 33.01 min, RRT 1.61) content [2, 8]: 0.02
- Impurity 11 (RT 33.72 min, RRT 1.65) content [2, 8]: 0.01
- Impurity 12 (RT 34.69 min, RRT 1.69) content [2, 8]: 0.01
- Impurity 13 (RT 39.10 min, RRT 1.91) content [2, 8]: 0.02
- Number of impurities [2, 8]: 13
- Property (appearance) [2, 8]: Melted
- Total content of impurities (%) [2, 8]: 0.50%
- Impurity 6 (RT 21.65 min, RRT 1.06) content [2, 9]: 0.01
- Impurity 7 (RT 22.01 min, RRT 1.07) content [2, 9]: 0.01
- Impurity 10 (RT 33.01 min, RRT 1.61) content [2, 9]: 0.02
- Impurity 11 (RT 33.72 min, RRT 1.65) content [2, 9]: 0.01
- Impurity 12 (RT 34.69 min, RRT 1.69) content [2, 9]: 0.01
- Impurity 13 (RT 39.10 min, RRT 1.91) content [2, 9]: 0.02
- Number of impurities [2, 9]: 6
- Total content of impurities (%) [2, 9]: 0.08%
- Impurity 6 (RT 21.65 min, RRT 1.06) content ([2]; RH75%, 10 days): 0.01
- Impurity 7 (RT 22.01 min, RRT 1.07) content ([2]; RH75%, 10 days): 0.01
- Impurity 10 (RT 33.01 min, RRT 1.61) content ([2]; RH75%, 10 days): 0.02
- Impurity 11 (RT 33.72 min, RRT 1.65) content ([2]; RH75%, 10 days): 0.01
- Impurity 12 (RT 34.69 min, RRT 1.69) content ([2]; RH75%, 10 days): 0.01
- Impurity 13 (RT 39.10 min, RRT 1.91) content ([2]; RH75%, 10 days): 0.02
- Number of impurities ([2]; RH75%, 10 days): 6
- Total content of impurities (%) ([2]; RH75%, 10 days): 0.08%
- Average yield (%) after sieving [3]: 86.0%
- Situations after sieving [3]: Almost no large particles but a
- Yield after sieving (%, n = 3), single runs ([3]; listed as Dapagliflozin (S)-propylene glycol hydrate): 85.2, % and 87.7, % and 84.9%
- Angle of repose (°) [6]: 48 °
- Bulk density [6]: 0.35 g/mL
- Tap density [6]: 0.53 g/mL
Structure (SMILES): CCOc1ccc(Cc2cc([C@@H]3O[C@H](CO)[C@@H](O)[C@H](O)[C@H]3O)ccc2Cl)cc1.C[C@H](O)CO.O

— patent US20230372375A1, “SGLT-2 INHIBITOR SARCOSINE CO-CRYSTAL, PREPARATION METHOD THEREFOR AND USE THEREOF” (Beijing Creatron Institute of Pharmaceutical Research Co. …, priority 2020, published 2023)
